Source: patent US20230150951A1, “2,5- OR 2,6-DISUBSTITUTED HYDROQUINONE DERIVATIVES WITH AT LEAST ONE CARBOXY, SULFO OR AMIDO GROUP USEFUL AS MEDICAMENTS” (OM PHARMA SA, priority 2020, published 2023)

Tests used:
[1] = system: Human neutrophils; assay: Neutrophil adhesion under static conditions; type: cell-based; details: fMLP-stimulated adhesion to fibrinogen; method: 40 μM and 80 μM, concentration of the value not stated
Method: Human neutrophils obtained from buffy coats of healthy donors were suspended at 3×10^6/ml in adhesion buffer (PBS containing 1 mM CaCl2)/MgCl2 and 10% FCS, pH 7.2). Neutrophils were preincubated for 30 min at 37° C. with 40 μM and 80 μM of the compounds.
Adhesion assays were performed on 18-well glass slides coated for 18 h at 4° C. with human fibrinogen (20 μg/well in endotoxin-free PBS); 20 μl of cell suspension were added to each well and stimulated for 1 min at 37° C. with 5 μl of fMLP 1 nM final concentration. After washing, adherent cells were fixed in glutaraldehyde 1.5% in PBS and counted by computer-assisted enumeration. Statistical analysis was performed by calculating mean and standard deviation (SD); significance was calculated by unpaired t-test. All statistical analyses were performed using GraphPad Prism 6 (GraphPad Software).

[2] = target: T1, VEGFR-2 (Homo sapiens, UniProt P35968); assay: VEGF-165 induced phosphorylation of VEGF-Receptor on HUVEC; type: cell-based; details: HUVEC preincubated 60 min, VEGF165 25 ng/mL 2 min; read-out: VEGFR-Phosphorylation inhibition IC50
T1 construct: endogenous in cells; host or cells: primary HUVEC
T1 sequence (P35968 20-1356): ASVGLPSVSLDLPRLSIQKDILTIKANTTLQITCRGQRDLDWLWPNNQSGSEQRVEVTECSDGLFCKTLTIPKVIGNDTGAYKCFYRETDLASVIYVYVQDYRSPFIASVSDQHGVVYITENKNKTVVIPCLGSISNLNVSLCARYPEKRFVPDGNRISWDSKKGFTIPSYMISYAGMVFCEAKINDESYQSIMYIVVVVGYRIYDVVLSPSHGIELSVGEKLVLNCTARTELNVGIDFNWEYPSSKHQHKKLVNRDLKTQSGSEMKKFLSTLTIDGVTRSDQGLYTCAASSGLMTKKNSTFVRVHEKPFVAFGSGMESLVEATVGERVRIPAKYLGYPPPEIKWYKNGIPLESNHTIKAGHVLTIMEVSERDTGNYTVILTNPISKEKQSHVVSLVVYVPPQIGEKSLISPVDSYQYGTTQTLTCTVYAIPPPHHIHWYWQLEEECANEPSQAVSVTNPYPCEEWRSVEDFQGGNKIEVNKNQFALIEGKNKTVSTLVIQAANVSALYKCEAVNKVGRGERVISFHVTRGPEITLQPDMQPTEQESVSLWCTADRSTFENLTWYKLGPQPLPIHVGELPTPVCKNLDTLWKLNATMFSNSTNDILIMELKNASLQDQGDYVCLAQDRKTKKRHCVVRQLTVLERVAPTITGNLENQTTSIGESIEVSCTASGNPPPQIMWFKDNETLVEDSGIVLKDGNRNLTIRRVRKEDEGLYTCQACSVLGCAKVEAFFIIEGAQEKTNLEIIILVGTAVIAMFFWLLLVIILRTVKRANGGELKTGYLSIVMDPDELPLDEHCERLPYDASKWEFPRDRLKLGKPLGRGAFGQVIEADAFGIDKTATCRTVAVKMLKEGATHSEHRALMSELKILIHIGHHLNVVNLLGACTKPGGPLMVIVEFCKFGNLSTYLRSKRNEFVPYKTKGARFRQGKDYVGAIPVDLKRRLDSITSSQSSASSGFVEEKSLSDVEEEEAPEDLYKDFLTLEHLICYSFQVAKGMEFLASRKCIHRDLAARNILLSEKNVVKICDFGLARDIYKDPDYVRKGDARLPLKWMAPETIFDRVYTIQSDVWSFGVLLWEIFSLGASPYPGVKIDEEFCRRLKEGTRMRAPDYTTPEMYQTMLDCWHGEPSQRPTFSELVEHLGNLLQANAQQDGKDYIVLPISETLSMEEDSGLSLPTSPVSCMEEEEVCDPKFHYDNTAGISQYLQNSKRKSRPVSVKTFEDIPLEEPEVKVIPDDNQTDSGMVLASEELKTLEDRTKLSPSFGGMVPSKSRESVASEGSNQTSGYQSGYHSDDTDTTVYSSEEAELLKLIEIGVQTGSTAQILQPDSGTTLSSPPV
Method: Cell culture: Primary human umbilical vein endothelial cells (HUVECs) were routinely cultured in 0.1% gelatin pre-coated flasks or dishes, up to passage 6. […]
Rabbit primary antibodies for VEGFR-2, p-Tyr1175 were acquired from Cell Signaling Technology (Leiden, The Netherlands). Phospho-VEGFR-2 (Tyr1175) Sandwich ELISA Kit was from Cell Signaling Technology.
[…] Western blot analysis was performed using anti-phospho-VEGFR-2 antibody and total VEGFR-2 was used as a loading control after membrane stripping.
Inhibition of VEGFR-2-phosphorylation results are expressed as IC50 in microM [μM] versus VEGF-treated HUVECs control without inhibitory compound.

[3] = target: T2, FGF-2 (Homo sapiens, UniProt P09038); assay: FGF-2 induced sprouting of HUVEC, spheroid-based cellular angiogenesis assay; type: cell-based; details: FGF-2 25 ng/mL preincubated with compound, 24 h
T2 construct: purchased Peprotech 100-18C
T2 sequence (P09038 134-288): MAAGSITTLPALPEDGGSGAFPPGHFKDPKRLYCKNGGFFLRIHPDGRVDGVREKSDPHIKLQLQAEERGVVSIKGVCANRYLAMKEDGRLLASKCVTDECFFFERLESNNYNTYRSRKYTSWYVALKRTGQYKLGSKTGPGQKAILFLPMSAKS
Method: (§1) Aim of this in vitro method is to assess compounds effects on FGF-2, FGF-1, or VEGF-A induced sprouting of human umbilical vein endothelial cells (HUVEC) in the spheroid-based cellular angiogenesis assay. Before adding the growth factors to the cells, they were preincubated with the compound. Sunitinib was tested as a control (without preincubation).
(§2) IC50 values determined for the tested compounds are expressed in microM [μM] and the values for the inhibition of FGF-1, FGF2 and VEGF-A induced growth (sprouting) are listed after each compound in the examples after chemical characterization.
(§3) Sprouting test was performed on the compounds dissolved in DMSO to reach 100-fold concentrated stock solutions and dissolved in culture media. Sunitinib as reference compound was provided by ProQinase GmbH. Growth factors were purchased from rhFGF-basic (FGF-2), Peprotech, New Jersey, USA, #100-18C, Lot #0415571; rhFGF-acidic (FGF-1), Peprotech, New Jersey, USA, #100-17A, Lot #031207; hVEGF-A165 (ProQinase GmbH, Freiburg, Germany; 05.02.2010) were used for stimulation of HUVEC cells growth.
(§4) Test system: Endothelial cells from human umbilical vein (HUVEC) from pooled donors were stored frozen with 70% medium, 20% FCS, 10% DMSO at about 1×10^6 cells/ampoule. HUVEC cells, primary human umbilical vein endothelial cells (PromoCell, Heidelberg, Germany), were used after passage 3 to 4. Morphology of the cells are adherent, cobblestone-like growing as monolayer and were cultured in endothelial cell growth and basal medium (ECGM/ECBM, PromoCell). The subculture was split 1:3; every 3-5 days, seed out at ca. 1×10^4 cells/cm^2 and incubated at 37° C. with 5% CO2 with a doubling time 24-48 hours
(§5) Dilution of test compounds: 100× concentrated solutions (concerning to the final assay concentrations) of each test compound were prepared with the appropriate solvent (in DMSO or in water). These 100×compound solutions were further diluted in endothelial cell growth and basal medium (ECBM) 1:7.5 to get a 13.33× concentrated solution. 75 μl of the 13.33×solution was subsequently mixed with 25 μl of 40× concentrated stimulus (solved in ECBM), resulting in a 10×concentrated stimulus/compound mixture. This mixture (100 μl) was incubated for 30 min at 37° C. and then added to 900 μl gel, containing the HUVEC spheroids (resulting in the final assay concentration).
(§6) Test method: the experiments were pursued in modification of the originally published protocol (Korff and Augustin: J Cell Sci 112: 3249-58, 1999). In brief, spheroids were prepared as described (Korff and Augustin: J Cell Biol 143: 1341-52, 1998) by pipetting 400 HUVEC in a hanging drop on plastic dishes to allow overnight spheroid aggregation. 50 HUVEC spheroids were then seeded in 0.9 ml of a collagen gel and pipetted into individual wells of a 24 well plate to allow polymerization. The test compounds were preincubated with the growth factors (FGF-1, FGF-2 or VEGF-A final concentration 25 ng/mL) in a 10-fold concentrated solution and subsequently, 100 μl of this solution was added on top of the polymerized gel. All compounds were diluted in solvent (DMSO or water) as 100×stocks first (which means 100×stocks of each final assay concentration were prepared in solvent). Subsequently, these stocks were further diluted in medium (resulting in the 13.33×stocks of each final assay concentration) with final concentrations tested: 100, 50, 25, 12.5, 6.25, 3.13 and 1.56×10^−6 M). Plates were incubated at 37° C. for 24 hours and fixed by adding 4% PFA (Roth, Karlsruhe, Germany).
(§7) Quantification of growth factor inhibition: sprouting intensity of HUVEC spheroids treated with the growth factor and the inhibitors were quantitated by an image analysis system determining the cumulative sprout length per spheroid (CSL).

[4] = system: Human neutrophils; assay: Inhibition of ROS production in human neutrophils (isoluminol chemiluminescence); type: cell-based; details: fMLP+TNF-α stimulated PMN; for inhibition at 0.3 µM / IC50: Homo sapiens, Neutrophil
Excerpt: NADPH oxidase, located in the plasma membrane and in the membranes of specific granules, produces superoxide anions from which other ROS, such as hydrogen peroxide, singlet oxygen, hypochlorite, and active hydroxyl radicals. ROS are released into the surrounding medium or into a membrane-enclosed subcellular organelle. One quick and sensitive method for measuring the generation of these metabolites is chemiluminescence (CL). Isoluminol amplified CL technique, is very sensitive and widely used to study respiratory burst (mainly extracellular production of ROS) induced in neutrophils.
Human neutrophils were isolated from buffy coats which obtained from healthy donors. The isolated neutrophils (3×10^6/ml) were suspended in Hanks' Balanced Salt Solution (HBSS) with Calcium and Magnesium. Neutrophils were pre-incubated with the compounds at different concentrations (0.1, 0.3, 1, 3 and 10 μM) for 30 min at 37° C. The black 96-well cell culture plates were coated with human fibrinogen (0.25 mg/ml in PBS), and incubated overnight at 4° C. or 2 hr at 37° C. Then the plates were washed with endotoxin-free PBS. The neutrophils were incubated (priming) with TNF-α (20 ng/ml) for 10 minutes at 37° C. Thereupon the 75 μl of cell suspension and 75 μl (Isoluminol+HRP solution) were added to each well. The chemiluminescence was recorded (every 25 sec for 250 sec) after fMLP (1 μM) activation using a Multilabel Reader victor3 (Perkin Elmer, USA). Background values, defined as the mean chemiluminescent values of isoluminol diluted in HBSS, were subtracted from all readings (CPS, count per second). The assays were done in duplicate or triplicate.

[5] = target: T3, FGF-1 (Homo sapiens, UniProt P05230); assay: FGF-1 induced sprouting of HUVEC, spheroid-based cellular angiogenesis assay; type: cell-based; details: FGF-1 25 ng/mL preincubated with compound, 24 h
T3 construct: purchased Peprotech 100-17A
T3 sequence (P05230 whole entry): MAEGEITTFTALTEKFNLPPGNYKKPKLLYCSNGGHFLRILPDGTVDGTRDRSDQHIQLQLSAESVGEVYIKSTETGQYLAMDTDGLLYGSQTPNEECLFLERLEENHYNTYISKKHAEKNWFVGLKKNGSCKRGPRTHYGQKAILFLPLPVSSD
Method: as §1, §2, §3, §4, §5, §6, §7

[6] = system: STZ-induced diabetes model; assay: STZ-induced diabetic nephropathy, kidney disease and retinopathy model (28 days treatment)
Method: A total of 70 female CD-1 mice aged 5-7 weeks weighing approximately 25-30 g were used for the study. These were purchased from Charles River, UK and had 7 days acclimatization period. Animals were housed in IVC cages (up to 5 per cage) with individual mice identified by tail mark. All animals were allowed free access to a standard certified commercial diet and sanitised water during the study. The holding room was maintained under standard conditions: 18-24° C., 55-70% humidity and a 12 h light/dark cycle.
Mice were starved for 6 hours prior to injection. One week after completion of induction glucose levels were monitored and mice with levels less than 15 mml/L (280 mg/gL) were removed from the study as they had not developed the ideal severity of diabetes. Glucose levels were be monitored weekly and 5 weeks after STZ induction biochemical assessment of renal injury was carried out by measuring urine albumin and creatinine levels and confirming they were within the desired range. After successful completion of this stage animals were assigned to treatment groups.
Treatment continued for 4 weeks (28 days) with weekly measurement of blood glucose and urine albumin/creatinine. The study schedule is detailed below looking at weekly (week 5 to 9) blood glucose levels, urine albumin creatinie ratios, and terminal (week 9) blood chemistry and cytokines, kidney histology and eye-retinal leakage.
Urine Albumin: Creatinine (ALB: CRE): Urine was collected weekly and pooled for each treatment group.
ELISAs: At the end of the treatment period blood was collected and processed to serum. Serum levels of CRP, TGF-β, IL-6 and TNF-α were quantified using commercially available ELISA kits, results are shown in Table 56.

[7] = day 28 of treatment (week 9), 15 mg/kg IV, Captopril 50 mg/kg PO
[8] = day 28 of treatment (week 9), serum, 15 mg/kg IV, Captopril 50 mg/kg PO

SMILES | Neutrophil adhesion inhibition [1] [%] | IC50 [2] [µM] | IC50 [3] [µM] | inhibition at 0.3 µM ([4]; 0.3 μM) [%] | IC50 [5] [µM] | other results
CCOC(=O)Cc1cc(O)c(C(=O)Nc2cc(NC(=O)c3cc(O)c(CC(=O)OCC)cc3O)cc(C(=O)OC)c2)cc1O [IIIb-010a-E3, methyl 3,5-bis(4-(ethoxycarbonylmethyl)-2,5-dihydroxybenzamido)benzoate] | 0 | 0.65 | – | – | – | –
CCOC(=O)c1cc(O)c(CN(Cc2cc(O)c(C(=O)OCC)cc2O)Cc2cc(O)c(C(=O)OCC)cc2O)cc1O [IIIc-061a-E3] | 10.4 | 0.34 | – | – | – | –
O=C(O)c1ccc(NC(=O)c2cc(O)c(C(=O)O)cc2O)cc1 [Ia-003a, 4-(4-carboxyphenyl-aminocarbonyl)-2,5-dihydroxybenzoic acid] | 39.1 | – | 34 | 44.4 | 12 | IC50 [4]: 0.414 µM
O=C(O)c1cc(O)c(C(=O)Nc2cccc(S(=O)(=O)O)c2)cc1O [Ia-002c, 2,5-dihydroxy-4-(3-sulfophenylaminocarbonyl)benzoic acid] | 1.87 | ≥ 100 | – | 38.9 | 14 | IC50 [4]: 0.405 µM
O=C(O)c1cccc(NC(=O)c2cc(O)cc(C(=O)O)c2O)c1 [IIa-002a, 3-(3-carboxyphenylaminocarbonyl)-2,5-dihydroxybenzoic acid] | 17.39 | – | 131 | 43.3 | 19 | IC50 [4]: 0.299 µM
CCOC(=O)Cc1ccccc1NC(=O)c1cc(O)cc(C(=O)OCC)c1O [IIa-034a-E2, ethyl 3-(2-(ethoxycarbonylmethyl)phenylaminocarbonyl)-2,5-dihydroxybenzoate] | 11.86 | – | 164 | 68.7 | – | –
CCOC(=O)c1cc(NC(=O)c2cc(OC(C)=O)c(C(=O)OCC)cc2OC(C)=O)cc(NC(=O)c2cc(OC(C)=O)c(C(=O)OCC)cc2OC(C)=O)c1 [Ib-010a-E3-A4, ethyl 3,5-bis(2,5-diacetoxy-4-ethoxycarbonylbenzoylamino)benzoate] | 96 | 0.54 | – | 54.9 | ≥ 200 | IC50 [4]: 1.49 µM
C[C@H](CS)C(=O)N1CCC[C@H]1C(=O)O [Captopril, reference compound] | – | – | – | – | – | Serum CRP ([6]; 28 days of treatment, vs vehicle induced controls): significantly reduced; Mean day 0 blood glucose Concentration (mmol/L) (SD) ([6]; day 0, 15 mg/kg IV, Captopril 50 mg/kg PO): 23.7 (6.9) mmol/L; Mean day 28 blood glucose Concentration (mmol/L) (SD) ([6]; day 28, 15 mg/kg IV, Captopril 50 mg/kg PO): 32.2 (2.3) mmol/L; Blood BUN [6, 7]: 28.5 ± 7.6; Disease Score (kidney, H&E) [6, 7]: 6 ± 1; Eye area (retinal flatmount area covered by vasculature) [6, 7]: 11.8 ± 1.4; Trichrome staining (Kidney fibrosis) [6, 7]: 1.98 ± 0.47; Blood CRP [6, 8]: 4534 ± 821; Blood IL-6 [6, 8]: 125.56 ± 15.75; Blood TGF-beta [6, 8]: 14.55 ± 2.86; Blood TNF-alpha [6, 8]: 415 ± 51.7; Urine albumine creatinine ratio (ALB:CRE) ([6]; day 28 of treatment (week 9), urine pooled per group, 15 mg/kg IV, Captopril 50 mg/kg PO): 24.40
O=C(O)Cc1ccc(NC(=O)c2cc(O)c(C(=O)O)cc2O)cc1 [Ia-032a, 4-(4-(carboxymethyl)phenylaminocarbonyl)-2,5-dihydroxybenzoic acid] | – | ≥ 100 | 91 | – | – | –
CCOC(=O)Cc1cc(O)c(C(=O)Nc2ccccc2-c2nnn[nH]2)cc1O [IIIa-001aTz-E1, ethyl (4-(2-(1H-tetrazol-5-yl)phenylaminocarbonyl)-2,5-dihydroxyphenyl)acetate] | 91.76 | 0.32 | – | 70 | ≥ 200 | –
O=C(O)c1cc(NC(=O)c2cc(O)cc(C(=O)O)c2O)cc(C(=O)O)c1 [IIa-015a, 5-(3-carboxy-2,5-dihydroxybenzamido)isophthalic acid] | – | – | 125 | – | – | –
CCOC(=O)c1cc(O)c(-c2nc3c(C(=O)OC)cccc3[nH]2)cc1O [Id-030a-E2] | 43 | 0.33 | – | – | 115 | PMN ROS inhibition at 0.3 μM ([4]; 0.3 μM): 0%
O=C(O)c1cc(O)c(C(=O)Nc2ccc(S(=O)(=O)O)cc2)cc1O [Ia-003c, 2,5-dihydroxy-4-(4-sulfophenylaminocarbonyl)benzoic acid] | – | 0.4 | – | – | 35 | –
O=C(O)c1cc(O)c(CNCc2cc(O)c(C(=O)O)cc2O)cc1O [IIIc-056a, Bis(4-carboxy-2,5-dihydroxyphenylmethyl)amine] | 35 | – | 35 | 90.1 | – | –
O=C(O)c1cc(O)cc(C(=O)Nc2ccccc2S(=O)(=O)O)c1O [IIa-001c, 2,5-dihydroxy-3-(2-sulfophenylaminocarbonyl)benzoic acid] | 43.53 | – | 71 | 72.6 | – | –
